A short description of this series: Particle size distribution of micronized escitalopram oxalate batches (laser light diffraction, Malvern instrument). The series is classed as physicochemical. The following applies: micronized powder; for D50/D95: ratio of D50 to D95; for D50: size below which 50 volume percent of particles lie; for D50 / D95: Malvern instrument; for D95: size below which 95 volume percent of particles lie. The source says: The term D95 as used herein is defined as a size of particles where 95 volume percent of the particles have sizes less than the value given. The term D50 defines a size where 50 volume percent of the particles have sizes less than the value given.
The particle size distributions for the present application can measured using laser light diffraction equipment, such as are sold by Malvern Instruments Ltd., Malvern, Worcestershire, United Kingdom. Other types of equipment are also suitable for particle size distribution determinations.
The obtained solid was micronized in a jet mill to produce desired particle sizes. The feed pressure was adjusted to about 2 Kg/cm^2; the chamber pressure was adjusted to about 1.5 Kg/cm^2 and the feed rate to about 1 to 2 kg/hour. The material fed into the micronizer through a charging hopper. The obtained micronized material was collected into a container.

Counter-ions that a name gives are not always drawn.

For `CN(C)CCCC1(c2ccc(F)cc2)OCc2cc(C#N)ccc21` (stereo not drawn) [Batch 1, S-(+)-1-[3-(dimethyl-amino)propyl]-1-(p-fluorophenyl)-5-phthalancarbonitrile oxalate], where the note is “listed as 1”, the D50/D95 is reported as 0.4293, the D50 came out at 3.95 and the D95 is 9.20.

For `CN(C)CCCC1(c2ccc(F)cc2)OCc2cc(C#N)ccc21` (stereo not drawn) [Batch 2, S-(+)-1-[3-(dimethyl-amino)propyl]-1-(p-fluorophenyl)-5-phthalancarbonitrile oxalate], where the note is “listed as 2”, the D50/D95 worked out at 0.4653, the D50 was determined as 4.56 and the D95 amounted to 9.80.
